Data: US9380788B2, “Package for plant antimicrobial treatment” (priority 2013, dated 2016)

System: pepper plants
Assay type: in vivo
Settings: plants sprayed with oregano/sesame oil emulsion made with the emulsifier

Compound | Phytotoxicity on pepper plants
CCCCCCCC/C=C\CCCCCCCC(=O)OCCOCC(OCCO)C1OCC(OCCO)C1OCCO (stereo not shown) [Tween 80] | phytotoxicity
Triton X 100 [Triton X100] | phytotoxicity
CCCCCCCCCCCCOS(=O)(=O)[O-].[Na+] [SDS] | phytotoxicity
CCCCCCCCCCCCCCCCCC(=O)[O-].[Na+] [sodium stearate, Sodium Stearate] | very vital
